Data published in patent US10463712B2, “Human catestatin induces gut microbiota dysbiosis” (University of Manitoba, priority 2015, dated 2019).
Where no end group is shown, it is not given here.

Tests used:
[1] = tested on: Staphylococcus aureus, group A Streptococcus, Escherichia coli, Pseudomonas aeruginosa, Candida albicans, Aspergillus niger, A. fumigates, Trichophyton rubrum; conditions: gram-positive and gram-negative bacteria, yeasts, filamentous fungi; cited from earlier work
[2] = tested on: colonic mucosa associated microbiota; test: Colonic mucosa associated microbiota composition by Illumina 16S rRNA sequencing after intrarectal CTS; format: in vivo, C57BL/6 mice; conditions: for Mean percentage of sequence in total bacterial population: CTS 1.5 mg/kg/day i.r. 6 days
Method: (§1) Male C57BL/6 mice (7-9 weeks old) were purchased from Charles River (Canada) and maintained in the animal care facility at the University of Manitoba. The experimental protocol was approved by the University of Manitoba Animal Ethics Committee (10-073) and the research was conducted according to the Canadian Guidelines for Animal Research. Two groups of 4 and 6 mice were studied, one receiving the vehicle solution and one receiving intra-rectal Infusion of CTS for 6 days.
(§2) Saline (0.9%) was injected in the control group. Mice were anaesthetized using Isoflurane (Abbott, Toronto, Canada).
(§3) Samples were collected 6 days post-treatment induction, after euthanasia under isoflurane (Abbot) anaesthesia. The macroscopic score was determined on the sacrifice day based on stool consistency, rectal prolapse and rectal and colonic bleeding. On the day of sacrifice, a 250 mg fecal sample and a portion of the colon were collected in individual collector tubes from each animal. All samples were preserved at −80° C. before use.
(§4) Colons were opened and 50 mg of scrapings were taken from the inside. Samples were homogenized at room temperature, and genomic DNA was extracted from 250 mg fecal mass using a ZR fecal DNA Kit (Zymo Research Corp., Orange, Calif.). DNA extraction was performed using a Qiagen DNeasy blood & tissue kit (Qiagen corp, Valencia, USA). Both DNA extraction kits have a bead-beating step to lyse microbial cells. To match the concentration requirement for pyrosequencing, DNA quantity was determined using a Beckman DU/800 spectrophotometer (Beckman Coulter, Inc., Fullerton, Calif.). Genomic DNA was normalized to achieve a concentration of 20 ng/μL, and quality-checked by 16S rRNA gene using PCR amplification of 27F (5′-[…]-3′, SEQ ID NO:2) and 342R (5′-[…]-3′, SEQ ID NO:3)^58, 59. Amplicons were verified by agarose gel electrophoresis.
(§5) Library construction and Illumina sequencing were performed as described by Derakhshani et al.^60. Briefly, the […] region of the 16S rRNA gene was targeted for PCR amplification using modified F515/R806 primers^61. A reverse PCR primer was Indexed with 12-base Golay barcodes to allow for sample multiplexing. The PCR reaction for each sample was performed in duplicate and contained 1.0 μl of pre-normalized DNA, 1.0 μl each of forward and reverse primers (10 μM), 12 μl HPLC grade water (Fisher Scientific, ON, Canada) and 10 μl 5 Prime Hot MasterMix® (5 Prime, Inc., Gaithersburg, USA). Reactions consisted of an initial denaturing step at 94° C. for 3 min followed by 35 amplification cycles at 94° C. for 45 sec, 50° C. for 60 sec and 72° C. for 90 sec; this was followed by an extension step at 72° C. for 10 min in an Eppendorf Mastercycler® (Eppendorf, Hamburg, Germany). PCR products were then purified using a ZR-96 DNA Clean-up Kit™ (ZYMO Research, CA, USA) to remove primers, dNTPs and reaction components. The V4 library was then generated by pooling 200 ng of each sample, and quantified using Picogreen dsDNA (Invitrogen, NY, USA). This was followed by multiple dilution steps using pre-chilled hybridization buffer (HT1) (Illumina, CA, USA) to bring the pooled ampilcons to a final concentration of […], and the concentration was measured through optical density using a Qubit® 2.0 Fluorometer (Life technologies, ON, Canada). […] The 150 paired-end sequencing reaction was performed on a MISeq platform (Illumina, CA, USA) at the Gut Microbiome and Large Animal Biosecurity Laboratories, Department of Animal Science, University of Manitoba, Canada.
(§6) Bioinformatics analyses were performed as described by Derakhshani et al.^60. Briefly, the PANDAseq assembler^62 was used to merge overlapping paired-end Illumina fastq files. All the sequences with mismatches or ambiguous calls in the overlapping region were discarded. The output fastq file was then analyzed using downstream computational pipelines in the open source software package QIIME^63.

[3] = tested on: induced colitis; conditions: Rabbi et al. 2014; cited from earlier work
[4] = tested on: fecal microbiota; test: Fecal microbiota composition by Illumina 16S rRNA sequencing after intrarectal CTS; format: in vivo, C57BL/6 mice; conditions: for Mean percentage of sequence in total bacterial population: CTS 1.5 mg/kg/day i.r. 6 days
Method: as §1, §2, §3, §4, §5, §6

[5] = colonic mucosa associated samples
[6] = colonic mucosa associated samples, R^2=0.32, Q^2=0.242
[7] = fecal samples, R^2=0.94, Q^2=0.57

## SSMKLSFRARAYGFRGPGPQL [CTS]
[1]
  Antimicrobial activity in vitro: effective
[2]; colonic mucosa associated bacterial community, vs control
  Impact on Chao1, ACE, Shanon and Simpson indices of α-diversity: no significant impact
[2]; [5]
  Effect on Verrucomicrobia: lowered
  Impact on relative abundance of bacterial phyla: no significant impact
  β-diversity (PERMANOVA): bacterial community vs controls: no significant change
[2]; [6]
  PLS-DA association with CTS treatment: Bacteroidales, Chitinophagaceae, Clostridlaceae, Clostridiales, Coriobacteriaceae, Pseudomonadaceae, Rikenellaceae, Ruminococcaceae, YS2: positive association
  PLS-DA association with CTS treatment: genera Bifidobacterium and Stenotrophomonas: positive association
[2]; phylum Acidobacteria, colonic mucosa associated samples
  Mean percentage of sequence in total bacterial population: 0.03339%
[2]; phylum Actinobacteria, colonic mucosa associated samples
  Mean percentage of sequence in total bacterial population: 0.0724%
[2]; phylum Armatimonadetes, colonic mucosa associated samples
  Mean percentage of sequence in total bacterial population: 0.000879%
[2]; phylum Bacteroidetes, colonic mucosa associated samples
  Mean percentage of sequence in total bacterial population: 21.0435%
[2]; phylum Chlamydiae, colonic mucosa associated samples
  Mean percentage of sequence in total bacterial population: 0.00306%
[2]; phylum Chlorobi, colonic mucosa associated samples
  Mean percentage of sequence in total bacterial population: 0.002098%
[2]; phylum Cyanobacteria, colonic mucosa associated samples
  Mean percentage of sequence in total bacterial population: 0.1752%
[2]; phylum Deferribacteres, colonic mucosa associated samples
  Mean percentage of sequence in total bacterial population: 5.95%
[2]; phylum Fibrobacteres, colonic mucosa associated samples
  Mean percentage of sequence in total bacterial population: 0.01378%
[2]; phylum Firmicutes, colonic mucosa associated samples
  Mean percentage of sequence in total bacterial population: 12.52%
[2]; phylum Lentisphaerae, colonic mucosa associated samples
  Mean percentage of sequence in total bacterial population: 0.00457%
[2]; phylum OD1, colonic mucosa associated samples
  Mean percentage of sequence in total bacterial population: 0.004988%
[2]; phylum OP3, colonic mucosa associated samples
  Mean percentage of sequence in total bacterial population: 0.001604%
[2]; phylum Planctomycetes, colonic mucosa associated samples
  Mean percentage of sequence in total bacterial population: 0.004664%
[2]; phylum Proteobacteria, colonic mucosa associated samples
  Mean percentage of sequence in total bacterial population: 59.17%
[2]; phylum Spirochaetes, colonic mucosa associated samples
  Mean percentage of sequence in total bacterial population: 0.08226%
[2]; phylum TM7, colonic mucosa associated samples
  Mean percentage of sequence in total bacterial population: 0.007409%
[2]; phylum Tenericutes, colonic mucosa associated samples
  Mean percentage of sequence in total bacterial population: 0.3714%
[2]; phylum Unclassified, colonic mucosa associated samples
  Mean percentage of sequence in total bacterial population: 0.2915%
[2]; phylum Verrucomicrobia, colonic mucosa associated samples
  Mean percentage of sequence in total bacterial population: 0.1428%
[3]
  Severity of induced colitis: less severe induced colitis
[4]; CTS administration in vivo
  E. coli levels in the gut: not affected
  S. aureus levels in the gut: not affected
[4]; fecal bacterial community, vs control
  Impact on Chao1, ACE, Shanon and Simpson indices of α-diversity: no significant impact
[4]; fecal samples
  Effect on Verrucomicrobia: lowered
[4]; fecal samples, P<0.05
  β-diversity (unweighted UniFrac, PERMANOVA): bacterial community vs controls: clustered separately
[4]; [7]
  PLS-DA association with CTS treatment: Adlercreutzia, Allobaculum, Bacteroidaceae (Family), Clostridia (Class), Ruminococcaceae (Family): negative association
  PLS-DA association with CTS treatment: Alpharoteobacteria (Class), Bacteroidales (Order), RF32 (Order), mitochondria (Family), YS2 (Order): positive association
  PLS-DA association with CTS treatment: genera Prevotella, Bacteroides Ovatus, Bacteroides, Parabacteroides distarosis, Parabacteroides and Dorea: positively associated
[4]; feces, P<0.001
  Change of Firmicutes population vs control: significantly decreased
[4]; feces, P<0.05
  Change of relative abundance of Bacteroidetes vs control: significantly increased
[4]; feces, lower taxonomical level
  Prevotella, Bacteroides, and Parabacteroides populations: significant increase
[4]; phylum Actinobacteria, fecal samples
  Mean percentage of sequence in total bacterial population: 0.1877%
[4]; phylum Bacteroidetes, fecal samples
  Mean percentage of sequence in total bacterial population: 74%
[4]; phylum Cyanobacteria, fecal samples
  Mean percentage of sequence in total bacterial population: 0.152%
[4]; phylum Deferribacteres, fecal samples
  Mean percentage of sequence in total bacterial population: 1.144%
[4]; phylum Fibrobacteres, fecal samples
  Mean percentage of sequence in total bacterial population: 0.000541%
[4]; phylum Firmicutes, fecal samples
  Mean percentage of sequence in total bacterial population: 20.56%
[4]; phylum Proteobacteria, fecal samples
  Mean percentage of sequence in total bacterial population: 2.873%
[4]; phylum TM7, fecal samples
  Mean percentage of sequence in total bacterial population: 0.003098%
[4]; phylum Tenericutes, fecal samples
  Mean percentage of sequence in total bacterial population: 0.4046%
[4]; phylum Unclassified, fecal samples
  Mean percentage of sequence in total bacterial population: 0.4142%
[4]; phylum Verrucomicrobia, fecal samples
  Mean percentage of sequence in total bacterial population: 0.266%
